Assay results published in patent US20250332149A1, “PIPERIDINE COMPOUNDS AND PHARMACEUTICAL COMPOSITIONS” (Lumos Pharma, Inc., priority 2024, published 2025).

Assay: Phase 1 study Part 1: plasma PK and relative bioavailability of LUM-201 tablets vs capsule
Type: in vivo, human
Settings: for % AUCex, Arithmetic Mean / % AUCex, Geometric Mean / Clast, Arithmetic Mean / Clast, Geometric Mean / DNAUC0-inf, Arithmetic Mean / DNAUC0-inf, Geometric Mean / DNAUC0-last, Arithmetic Mean / DNAUC0-last, Geometric Mean / DNCmax, Arithmetic Mean / DNCmax, Geometric Mean / tlag, Median / tlast, Median / λz, Arithmetic Mean / λz, Geometric Mean / DNAUC0-inf, GLS Mean / DNAUC0-last, GLS Mean / DNCmax, GLS Mean: oral, fasted; for DNAUC0-inf, GLS Mean / DNAUC0-last, GLS Mean / DNCmax, GLS Mean: ANOVA
From the text: This study in healthy adult subjects was designed to establish the pharmacokinetic (PK) and pharmacodynamic (PD) profiles for the orally administered test product (coated mini-tablets in a capsule) and reference product (mini-tablet) to evaluate relative bioavailability in Part 1 and to evaluate the food effect on the bioavailability of test product (capsule only) in Part 2.
This was a single center, open-label, randomized, Phase 1 study in healthy adult subjects. This study consisted of 2 parts: Part 1 was a 4-sequence, 4-treatment, 4 Treatment Periods, crossover study to determine the relative bioavailability of current tablets to new capsule formulations of LUM-201; Part 2 was a 2-sequence, 2-treatment, 2 Treatment Periods, crossover study to evaluate the food effect on the bioavailability of the new capsule formulation of LUM-201. An individual subject was allowed to participate in only 1 part (Part 1 or Part 2) of the study. Forty subjects were planned and enrolled in this study. • Part 1: A total of 28 subjects were planned and enrolled in Part 1. Part 1 consisted of 4 sequences, each having 4 Treatment Periods enrolling 7 subjects (1:1:1:1 ratio). During Treatment Periods 1 through 4, each subject received 4 single oral doses of LUM-201 drug product in a randomized, crossover order. • Part 2: A total of 12 subjects were planned and enrolled in Part 2. Part 2 consisted of 2 sequences, each having 2 Treatment Periods enrolling 6 subjects (1:1 ratio). Each subject received a single oral dose of LUM-201 at each Treatment Period. During Treatment Periods 1 and 2, each subject received 2 single oral doses of LUM-201 in a randomized, crossover order. • On Day 1 of Treatment Period 1, subjects were administered the assigned treatment (A or B) as randomized, followed by a washout of at least 3 days between Treatment Periods 1 and 2. Subjects stayed in-house (not discharged) between the Treatment Periods. • Treatment A was dosed at 85.3 mg capsule formulation of LUM-201 (intact capsule consumed unopened) consumed while subject was in a fasted state with 240 mL of water. • Treatment B was dosed at 85.3 mg capsule formulation of LUM-201 (intact capsule consumed unopened) consumed 30 minutes after start of a high-fat meal with 240 mL of water. • Subjects were discharged from the study center on the morning of Day 3 of Treatment Period 2 after the scheduled study assessments had been completed.
• Treatment A (reference): five 18 mg oral tablets of LUM-201 were administered under fasted state with 240 mL of water. • Treatment B (test): a single 85.3 mg dose of oral capsule formulation of LUM-201 was administered as a whole capsule under fasted state with 240 mL of water. • Treatment C (test): a single 85.3 mg dose of oral capsule formulation of LUM-201 was administered by dosing capsule contents (dry) under fasted state with 240 mL of water. • Treatment D (test): a single 85.3 mg dose of oral capsule formulation of LUM-201 was mixed (capsule contents) with banana puree (2 teaspoons), followed by 240 mL of water and was ingested within 5 minutes under fasted state (Note: Banana Puree, single serve cup was used [118.3 mL]). […]

[1] = 85.3 mg capsule, Treatments B, C and D
[2] = Part 1, Treatment A (reference): five 18 mg tablets (90 mg)
[3] = Part 1, Treatment B (test): 85.3 mg whole capsule
[4] = Part 1, Treatment C (test): 85.3 mg capsule contents (dry)
[5] = Part 1, Treatment D (test): 85.3 mg capsule contents in banana puree

CC(C)(N)C(=O)N[C@H](COCc1ccccc1)C(=O)N1CCC2(CC1)CN(S(C)(=O)=O)c1ccccc12 [LUM-201, N-[1(R)-[(1,2-dihydro-1-methanesulfonylspiro[3H-indole-3,4′-piperdin]-yl)carbonyl]-2-(phenylmethyloxy)ethyl]-2-amino-2-methylpropanamide methanesulfonate]
bioequivalence of DNAUC0-last and AUC0-inf to the 90 mg tablet, fasted (Treatment A) [1]: bioequivalent | bioequivalence of DNCmax to the 90 mg tablet dose, fasted (Treatment A) [1]: not bioequivalent | % AUCex, Arithmetic Mean [2]: 1.763% | % AUCex, Geometric Mean [2]: 1.652% | Clast, Arithmetic Mean [2]: 0.8783 ng/mL | Clast, Geometric Mean [2]: 0.8225 ng/mL | DNAUC0-inf, Arithmetic Mean [2]: 6.998 ng·h/mL/mg | DNAUC0-inf, Geometric Mean [2]: 6.247 ng·h/mL/mg | DNAUC0-last, Arithmetic Mean [2]: 6.885 ng·h/mL/mg | DNAUC0-last, Geometric Mean [2]: 6.137 ng·h/mL/mg | DNCmax, Arithmetic Mean [2]: 1.464 ng/mL/mg | DNCmax, Geometric Mean [2]: 1.267 ng/mL/mg | tlag, Median [2]: 0 h | tlast, Median [2]: 36.34 h | λz, Arithmetic Mean [2]: 0.0901 h⁻¹ | λz, Geometric Mean [2]: 0.0886 h⁻¹ | DNAUC0-inf, GLS Mean [2]: 6.25 ng·h/mL/mg | DNAUC0-last, GLS Mean [2]: 6.14 ng·h/mL/mg | DNCmax, GLS Mean [2]: 1.27 ng/mL/mg | % AUCex, Arithmetic Mean [3]: 1.748% | % AUCex, Geometric Mean [3]: 1.630% | Clast, Arithmetic Mean [3]: 0.7461 ng/mL | Clast, Geometric Mean [3]: 0.7189 ng/mL | DNAUC0-inf, Arithmetic Mean [3]: 6.638 ng·h/mL/mg | DNAUC0-inf, Geometric Mean [3]: 6.008 ng·h/mL/mg | DNAUC0-last, Arithmetic Mean [3]: 6.534 ng·h/mL/mg | DNAUC0-last, Geometric Mean [3]: 5.903 ng·h/mL/mg | DNCmax, Arithmetic Mean [3]: 1.353 ng/mL/mg | DNCmax, Geometric Mean [3]: 1.092 ng/mL/mg | tlag, Median [3]: 0.2494 h | tlast, Median [3]: 47.93 h | λz, Arithmetic Mean [3]: 0.0877 h⁻¹ | λz, Geometric Mean [3]: 0.086 h⁻¹ | DNAUC0-inf, GLS Mean [3]: 5.97 ng·h/mL/mg | DNAUC0-last, GLS Mean [3]: 5.86 ng·h/mL/mg | DNCmax, GLS Mean [3]: 1.09 ng/mL/mg | % AUCex, Arithmetic Mean [4]: 1.859% | % AUCex, Geometric Mean [4]: 1.673% | Clast, Arithmetic Mean [4]: 0.7612 ng/mL | Clast, Geometric Mean [4]: 0.7309 ng/mL | DNAUC0-inf, Arithmetic Mean [4]: 6.832 ng·h/mL/mg | DNAUC0-inf, Geometric Mean [4]: 6.259 ng·h/mL/mg | DNAUC0-last, Arithmetic Mean [4]: 6.721 ng·h/mL/mg | DNAUC0-last, Geometric Mean [4]: 6.142 ng·h/mL/mg | DNCmax, Arithmetic Mean [4]: 1.159 ng/mL/mg | DNCmax, Geometric Mean [4]: 1.014 ng/mL/mg | tlag, Median [4]: 0 h | tlast, Median [4]: 48.07 h | λz, Arithmetic Mean [4]: 0.0829 h⁻¹ | λz, Geometric Mean [4]: 0.0818 h⁻¹ | DNAUC0-inf, GLS Mean [4]: 6.21 ng·h/mL/mg | DNAUC0-last, GLS Mean [4]: 6.10 ng·h/mL/mg | DNCmax, GLS Mean [4]: 1.01 ng/mL/mg | % AUCex, Arithmetic Mean [5]: 1.932% | % AUCex, Geometric Mean [5]: 1.703% | Clast, Arithmetic Mean [5]: 0.8723 ng/mL | Clast, Geometric Mean [5]: 0.7962 ng/mL | DNAUC0-inf, Arithmetic Mean [5]: 7.377 ng·h/mL/mg | DNAUC0-inf, Geometric Mean [5]: 6.400 ng·h/mL/mg | DNAUC0-last, Arithmetic Mean [5]: 7.254 ng·h/mL/mg
